From publication PMC7145299, “New Cysteine Protease Inhibitors: Electrophilic (Het)arenes and Unexpected Prodrug Identification for the Trypanosoma Protease Rhodesain” (Molecules, 2020)
Read-outs that look alike come from different tables or passages of the source.

What was measured:
[1] = molecular target: T1, serine protease of the Dengue virus (DENV PR) (Dengue virus type 2, UniProt P29990); test: Dengue virus protease inhibition assay; assay type: biochemical; details: 20 µM inhibitor
T1 construct: the serine protease of the Dengue virus (DENV PR)

cathepsin B = cathepsin B (Homo sapiens, UniProt P07858); test: biochemical; details: for inhibition at 20 µM: read-out: % inhibition of Cath. B
Protocol: (§1) Inhibition of cathepsins and rhodesain was tested with the fluorogenic substrate Cbz-Phe-Arg-AMC as described previously [19]. First, a screening at 20 µM inhibitor concentration was performed. For compounds showing >60% inhibition at this concentration, the IC50 values were determined. […] The respective Ki values (Table 1) were determined from plots of the IC50 values against substrate concentration according to the Cheng–Prusoff relationship [46].
(§2) Enzyme assays / Rhodesain and Cathepsins
(§3) The assays were performe d as described previously [7,8] by incubating rhodesain in 190 μL
(§4) assay buffer (50 mM sodium acetate pH 5.5, 5 mM EDTA, 200 mM NaCl, 0.005% Brij) with 5 μL of an
(§5) inhibitor DMSO stoc k solution of a given concentrati on for 10 min at room te mperature. The reaction
(§6) was started by adding 5 μ L of 400 μM Z-Phe-Arg-7-amino-4-methylc umari n (Z-Phe-Arg-AMC) in
(§7) DMSO. The released AMC was excited at 380 nm and the upc oming fl uoresce nce measured at 460
(§8) nm at 25 °C over time. The final substrate concentration was 10 μM.
(§9) Quenching of the fluoresc ence of the released AMC by the inhibitors was acc ounted for as
described previously [9].
(§10) The cathepsin L assays wer e performed accordi ngly in 50 mM Tris buffer (pH 6.5, 5 mM EDTA,
(§11) 200 mM NaCl, 0.005% Brij) and 250 μM Z-Phe-Arg-AMC concentration (final conce ntration: 6.25 μM).
(§12) The cathepsin B (Calbioche m) assays were performed accordingly in 50 mM Tris buffer pH 6.5,
(§13) 5 mM EDTA, 200 mM NaCl and 0.005% Brij leading to final enzyme and substrate concentrati ons of
(§14) Final inhibitor c once ntrations ranged from 0.001 μM to 100.0 μM.

cathepsin L [2] = molecular target: T2, cathepsin L (Homo sapiens, UniProt P07711); test: biochemical; details: for inhibition at 20 µM: read-out: % inhibition of Cath. L
Protocol: as §1, §2, §3, §4, §5, §6, §7, §8, §9
described previously [9].
as §10, §11, §12, §13, §14

[3] = test system: T. b. brucei 449 cell line; test: T. b. brucei cell survival assay (ATPlite); assay type: cell-based; details: Trypanosoma brucei, after 24 h, read-out: EC50 anti-trypanosomal activity
Protocol: Ester 7 and acid 8 were tested for their anti-trypanosomal activity against T. brucei brucei using the ATPlite assay according to previously published procedures. […] The differences in anti-protease and anti-trypanosomal activity between the lipophilic ester 7 and the more hydrophilic acid 8 might be due to different cell permeabilities of the compounds. […]
NaCl) followed by 45 min incubation at room te mpe rature. […] 5 μL of […] Z-Phe-Arg-AMC were added to 195 μL of rhodesain-8 or rhodesai n-DMSO stock solutions and the upcoming fluorescence was measured over time to assure complete inhibition (see Figure SI1)). […]
For the dilution assay, […] of the rhodesain-8 stock solution were diluted with […] 50 mM sodiu m acetate buffer (pH 5.5 with 5 mM EDTA, 200 mM NaCl 5 mM DTT) and the recovery of the enzymatic activity was measured immediately after adding […] of 400 μM Z-Phe-Arg-AMC (see […]
90 μL HMI-9 medium containing 2500 cells/mL were distributed in 96-well microplate s (PerkinEl mer). […] 50 μL of ATPlite 1 step solution (PerkinEl mer) was added to each well of the microplate and luminesce nce measured at room temperature with an Infinite® M200 PRO plate reader (Tecan Trading AG). The measured values were plotted against the c omp ound concentrati ons top yie ld the dose-resp onse c urve. The EC50 values were calculated using GraF it version 5.013 (Erithacus Software Ltd.). […]

rhodesain [4] = molecular target: T3, rhodesain (Trypanosoma brucei rhodesiense, UniProt Q95PM0, S297A); test: Rhodesain inhibition, fluorogenic substrate Cbz-Phe-Arg-AMC; assay type: biochemical; details: for % inhibition of Rhod.: 20 µM inhibitor
S. aureus sortase A = molecular target: T4, S. aureus sortase A (Staphylococcus aureus, UniProt Q2FV99); test: biochemical; details: 20 µM final inhibitor concentration
T4 construct: made in house

[5] = assay type: physicochemical; details: assay buffer pH 5.5 without protease, 24 h, room temperature
rhodesain [6] = molecular target: T3, rhodesain; test: Hydrolysis assay of ester 7 with rhodesain, LC-MS; assay type: biochemical; details: room temperature, 24 h
cathepsin L [7] = molecular target: T2, cathepsin L; details: IC50 increases linearly with substrate concentration
Protocol: as §1, §2, §3, §4, §5, §6, §7, §8, §9
described previously [9].
as §10, §11, §12, §13, §14

[8] = assay type: physicochemical; details: 800 µM in rhodesain sample buffer pH 5.5 with 10% d6-DMSO
Protocol: The interaction of the fluorinated inhibitors 7 and 8 with rhodesain was probed via ^19F NMR spectroscopy (Figure 3). […] To probe the rhodesain-mediated turnover of 7 into 8, we recorded time-resolved ^19F NMR spectra of 7 (800 µM) in the presence of 4 µM rhodesain (Figure 3b). During the measurement, the solution became clear and a dramatic difference in the chemical shift occurred to values identical to those observed for compound 8. The reaction was subsequently analyzed by MS (see Section 2.4), which confirmed the formation of the free acid 8.
Table S1 (DP4+)-results for product 12.
Lyophilized rhode sain was reconstituted at 4 mg/mL in 50 mM Na acetate, pH 5.5, 200 mM NaCl, 5 mM EDTA. […] After the addition of the inhibit ors at a final concentrati on of 0.1 mM, samples were analyzed by LC-MS using a nanoAcquity UP LC system (Waters Corporation) coupled to a nano-ESI-Q-TOF mass spectrome ter (Synapt G2-S HDMS, Waters Corporation). […]
For 19F NMR, c ompounds 7 (800 μM) or 8 (400 μM) were dissolved in rhodesain sample buffer (50 mM NaAcetate, pH 5.5, 200 mM NaCl, 5 mM Na-EDTA, 1 mM TCEP) with 10% d6-DMSO from a 40 mM inhibitor stock in d6-DMSO. Spectra were recorded at 303 K on a Bruker Avance 3 600 MHz spectrome ter with a Prodigy TCI cryoprobe (Bruker, Karlsruhe). Because 1H and 19F are measured in the same coil, protons wer e not decoupled during 19F acquisition. […]

T1 sequence (P29990 1394-1440): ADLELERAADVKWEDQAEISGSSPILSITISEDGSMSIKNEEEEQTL
T1 sequence (P29990 1476-1653): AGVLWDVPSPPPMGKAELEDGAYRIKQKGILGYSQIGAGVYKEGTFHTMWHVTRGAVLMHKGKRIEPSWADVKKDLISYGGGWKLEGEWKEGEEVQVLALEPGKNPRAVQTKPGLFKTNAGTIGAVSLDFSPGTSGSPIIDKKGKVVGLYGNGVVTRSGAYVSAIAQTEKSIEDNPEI
T4 sequence (Q2FV99 whole entry): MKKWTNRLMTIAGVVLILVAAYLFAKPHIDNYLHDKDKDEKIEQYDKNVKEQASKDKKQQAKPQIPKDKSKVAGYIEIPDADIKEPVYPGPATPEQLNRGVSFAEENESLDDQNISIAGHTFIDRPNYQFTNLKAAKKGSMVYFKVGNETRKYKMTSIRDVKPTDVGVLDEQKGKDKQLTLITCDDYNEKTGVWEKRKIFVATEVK
T2 sequence (P07711 114-333): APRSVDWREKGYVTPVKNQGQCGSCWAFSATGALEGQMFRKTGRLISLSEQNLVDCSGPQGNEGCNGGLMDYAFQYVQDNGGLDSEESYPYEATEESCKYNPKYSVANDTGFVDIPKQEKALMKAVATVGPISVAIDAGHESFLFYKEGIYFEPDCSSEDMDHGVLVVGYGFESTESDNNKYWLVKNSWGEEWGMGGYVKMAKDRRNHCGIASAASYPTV
T3 sequence (Q95PM0 126-342 S297A): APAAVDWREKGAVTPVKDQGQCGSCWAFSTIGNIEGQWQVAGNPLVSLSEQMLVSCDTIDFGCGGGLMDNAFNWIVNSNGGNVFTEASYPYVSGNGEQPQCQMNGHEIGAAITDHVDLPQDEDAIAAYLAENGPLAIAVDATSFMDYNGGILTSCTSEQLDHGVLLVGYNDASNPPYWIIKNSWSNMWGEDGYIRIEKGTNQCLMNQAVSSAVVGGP

Structure (SMILES) | inhibition at 20 µM [1] | inhibition at 20 µM (cathepsin B) | inhibition at 20 µM (cathepsin L [2]) | Ki (cathepsin L [2]) | inhibition at 20 µM (S. aureus sortase A) | other results
CC(C)C[C@H](NC(=O)[C@H](Cc1ccccc1)Nc1cc(F)c([N+](=O)[O-])cc1[N+](=O)[O-])C(=O)OCc1ccccc1 [Compound 3] | 28% | 22% | 60% | – | – | –
CC(C)C[C@H](NC(=O)[C@H](Cc1ccccc1)Nc1cc([N+](=O)[O-])c([N+](=O)[O-])cc1F)C(=O)O [Compound 8] | – | – | – | 3000 ± 900 nM | 0% | Ki (cathepsin B): 1500 ± 290 nM; EC50 [3]: 18500 nM; Ki (rhodesain [4]): 4 nM; reversibility of rhodesain inhibition (rhodesain [4]; IC50 at 10 min vs 45 min preincubation, dilution assay): reversible inhibition
CC(C)C[C@H](NC(=O)[C@H](Cc1ccccc1)NC(=O)Nc1ccc(F)c([N+](=O)[O-])c1)C(=O)OCc1ccccc1 [Compound 5] | 11% | 10% | 8% | – | – | –
CC(C)C[C@H](NC(=O)[C@H](Cc1ccccc1)NC(=O)c1ccc(Cl)nc1Cl)C(=O)OCc1ccccc1 [Compound 1] | 19% | 16% | 57% | – | – | –
CC(C)C[C@H](NC(=O)[C@H](Cc1ccccc1)NC(=O)c1cc([N+](=O)[O-])ccc1F)C(=O)OCc1ccccc1 [Compound 6] | 12% | 21% | 50% | – | – | –
CC(C)C[C@H](NC(=O)[C@H](Cc1ccccc1)Nc1cc([N+](=O)[O-])c([N+](=O)[O-])cc1F)C(=O)OCc1ccccc1 [Compound 7] | 31% | 63% | 98% | 1600 nM | 16% | Ki (cathepsin B): 4400 nM; hydrolysis of ester by reaction buffer [5]: not hydrolyzed; EC50 [3]: 95.3 nM; conversion of ester into free acid by catalytically active rhodesain (rhodesain [6]): complete conversion; % inhibition of Rhod. (rhodesain [4]): 45/nd %; inhibition mode from IC50 at different substrate concentrations (cathepsin L [7]): competitive inhibition mode; solubility [8]: poor solubility
CC(C)C[C@H](NC(=O)[C@H](Cc1ccccc1)Nc1cc(Cl)ncn1)C(=O)OCc1ccccc1 [Compound 2] | 24% | 33% | 56% | – | – | –
CC(C)C[C@H](NC(=O)[C@H](Cc1ccccc1)NC(=O)c1cccc([N+](=O)[O-])c1F)C(=O)OCc1ccccc1 [Compound 4] | 10% | 20% | 99% | 660 nM | 11% | % inhibition of Rhod. (rhodesain [4]): 75%; Ki (rhodesain [4]; read-out: Ki Rhod.): 290 nM; inhibition mode from IC50 at different substrate concentrations (cathepsin L [7]): competitive inhibition
